Test results published in ChEMBL document CHEMBL4229492, “Design, Synthesis, and Biological Evaluation of Novel 7-[(3 aS,7 aS)-3 a-Aminohexahydropyrano[3,4- c]pyrrol-2(3 H)-yl]-8-methoxyquinolines with Potent Antibacterial Activity against Respiratory Pathogens” (J Med Chem, 2018).
Converted amounts (≈) assume the structure as drawn. The source made the active and inactive calls. The calls are words filed in the database; no cut-off is given here.

Experiments:
Mus musculus [1] = assay: Toxicity in Slc:ddY mouse assessed as induction of mortality at 50 ug/5 uL/mouse administered intracisternally 30 mins after 400 mg/kg, po BPAA dosing and measured over 30 mins post dose; type: organism-based; conditions: in vivo, 0.5 h
Mus musculus [2] = assay: Toxicity in Slc:ddY mouse assessed as induction of convulsion at 5 ug/5 uL/mouse administered intracisternally 30 mins after 400 mg/kg, po BPAA dosing and measured over 30 mins post dose; type: organism-based; conditions: in vivo, 0.5 h
Mus musculus [3] = assay: Toxicity in Slc:ddY mouse assessed as induction of mortality at 5 ug/5 uL/mouse administered intracisternally and measured over 30 mins post dose; type: organism-based; conditions: in vivo, other, 0.5 h
Mus musculus [4] = assay: Toxicity in Slc:ddY mouse assessed as induction of convulsion at 15 ug/5 uL/mouse administered intracisternally 30 mins after 400 mg/kg, po BPAA dosing and measured over 30 mins post dose; type: organism-based; conditions: in vivo, 0.5 h
Mus musculus [5] = assay: Toxicity in Slc:ddY mouse assessed as induction of mortality at 15 ug/5 uL/mouse administered intracisternally 30 mins after 400 mg/kg, po BPAA dosing and measured over 30 mins post dose; type: organism-based; conditions: in vivo, 0.5 h
Mus musculus [6] = assay: Toxicity in Slc:ddY mouse assessed as induction of convulsion at 5 ug/5 uL/mouse administered intracisternally and measured over 30 mins post dose; type: organism-based; conditions: in vivo, other, 0.5 h
Mus musculus [7] = assay: Toxicity in Slc:ddY mouse assessed as induction of convulsion at 50 ug/5 uL/mouse administered intracisternally 30 mins after 400 mg/kg, po BPAA dosing and measured over 30 mins post dose; type: organism-based; conditions: in vivo, 0.5 h
Mus musculus [8] = assay: Toxicity in Slc:ddY mouse assessed as induction of mortality at 5 ug/5 uL/mouse administered intracisternally 30 mins after 400 mg/kg, po BPAA dosing and measured over 30 mins post dose; type: organism-based; conditions: in vivo, 0.5 h
Staphylococcus aureus [9] = assay: Antibacterial activity against Staphylococcus aureus SMITH after 18 hrs by two-fold microbroth dilution method; type: functional
[10] = Cmax in Crj:CD rat at 5 mg/kg, po; type: ADME, organism-based; parameters: dose 5 mg/kg, route oral; conditions: in vivo
Mus musculus [11] = assay: Toxicity in Slc:ddY mouse assessed as induction of mortality at 15 ug/5 uL/mouse administered intracisternally and measured over 30 mins post dose; type: organism-based; conditions: in vivo, other, 0.5 h
Haemophilus influenzae = assay: Antibacterial activity against Haemophilus influenzae ATCC 49247 after 18 hrs by two-fold microbroth dilution method; type: functional; conditions: ATCC 49247, 18 h
Klebsiella pneumoniae = assay: Antibacterial activity against Klebsiella pneumoniae TYPE 1 after 18 hrs by two-fold microbroth dilution method; type: functional; conditions: TYPE 1, 18 h
Streptococcus pneumoniae [12] = assay: Antibacterial activity against penicillin-susceptible Streptococcus pneumoniae J41 after 18 hrs by two-fold microbroth dilution method; type: functional; conditions: J41, 18 h
Pseudomonas aeruginosa = assay: Antibacterial activity against Pseudomonas aeruginosa PAO1 after 18 hrs by two-fold microbroth dilution method; type: functional; conditions: PAO1, 18 h
[13] = Primary phase half life in cynomolgus monkey serum at 5 mg/kg, iv; type: ADME, organism-based, Macaca fascicularis; conditions: read-out: alphat1/2 (converted)
[14] = Cmin in cynomolgus monkey serum at 5 mg/kg, iv after 5 mins; type: ADME, organism-based, Macaca fascicularis; conditions: read-out: Cmin
Escherichia coli [15] = assay: Antibacterial activity against quinolone-resistant Escherichia coli DNS5101 after 18 hrs by two-fold microbroth dilution method; type: functional; conditions: DNS5101, 18 h
hERG (KCNH2) [16] = molecular target: T1, hERG (KCNH2) (Homo sapiens, UniProt Q12809); assay: Inhibition of human ERG expressed in CHOK1 cells at 30 uM; type: cell-based; conditions: CHOK1 cells that express human ERG
Moraxella catarrhalis = assay: Antibacterial activity against Moraxella catarrhalis ATCC 25238 after 18 hrs by two-fold microbroth dilution method; type: functional; conditions: ATCC 25238, 18 h
[17] = Drug recovery in cynomolgus monkey urine at 5 mg/kg, iv after 24 hrs; type: ADME, organism-based, Macaca fascicularis; conditions: read-out: Drug recovery
Escherichia coli [18] = assay: Antibacterial activity against Escherichia coli 5-037042'98 harboring gyrase A Asp87Gly mutation after 18 hrs by two-fold microbroth dilution method; type: functional; conditions: 5-037042'98, 18 h
Escherichia coli [19] = assay: Antibacterial activity against Escherichia coli NIHJ after 18 hrs by two-fold microbroth dilution method; type: functional
Bacillus spizizenii = assay: Antibacterial activity against Bacillus subtilis ATCC 6633 after 18 hrs by two-fold microbroth dilution method; type: functional; conditions: ATCC 6633, 18 h
[20] = Metabolic stability in human microsomes at 1 uM assessed as compound remaining after 30 mins; type: ADME, Microsome; conditions: read-out: Stability
Streptococcus pyogenes = assay: Antibacterial activity against Streptococcus pyogenes ATCC 12344 after 18 hrs by two-fold microbroth dilution method; type: functional; conditions: ATCC 12344, 18 h
Albumin = Albumin (Homo sapiens, UniProt P02768); assay: Binding affinity to human serum albumin after 60 mins at 37 degC by ultrafiltration-based LC-MS analysis; type: ADME; conditions: read-out: PB (converted)
Staphylococcus aureus [21] = assay: Antibacterial activity against levofloxacin and methicillin-resistant Staphylococcus aureus 890325-1 after 18 hrs by two-fold microbroth dilution method; type: functional; conditions: 890325-1, 18 h
[22] = AUC (0 to 8 hrs) in cynomolgus monkey serum at 5 mg/kg, iv; type: ADME, organism-based, Macaca fascicularis; parameters: dose 5 mg/kg, time < 8 hr, route intravenous
CYP3A4 = CYP3A4 (Homo sapiens, UniProt P08684); assay: Inhibition of CYP3A4 in human liver microsomes at 10 uM assessed as remaining activity by measuring 1'-hydroxylation of midazolam after 30 mins; type: ADME; conditions: probe midazolam (1'-hydroxylation), read-out: Activity
Mus musculus [23] = assay: Toxicity in Slc:ddY mouse assessed as induction of convulsion at 15 ug/5 uL/mouse administered intracisternally and measured over 30 mins post dose; type: organism-based; conditions: in vivo, other, 0.5 h
hERG (KCNH2) [24] = molecular target: T1, hERG (KCNH2); assay: Inhibition of human ERG expressed in CHOK1 cells at 100 uM; type: cell-based; conditions: CHOK1 cells that express human ERG
Mus musculus [25] = assay: Toxicity in Slc:ddY mouse assessed as induction of mortality at 50 ug/5 uL/mouse administered intracisternally and measured over 30 mins post dose; type: organism-based; conditions: in vivo, other, 0.5 h
[26] = AUC (0 to 8 hrs) in Crj:CD rat at 5 mg/kg, po; type: ADME, organism-based; parameters: time < 8 hr, dose 5 mg/kg, route oral; conditions: in vivo
Staphylococcus aureus [27] = assay: Antibacterial activity against levofloxacin and methicillin-resistant Staphylococcus aureus 870307 after 18 hrs by two-fold microbroth dilution method; type: functional; conditions: Staphylococcus aureus, 870307, 18 h
Streptococcus pneumoniae [28] = assay: Antibacterial activity against penicillin-resistant Streptococcus pneumoniae 033806 after 18 hrs by two-fold microbroth dilution method; type: functional; conditions: Streptococcus pneumoniae, 033806, 18 h
Staphylococcus aureus [29] = assay: Antibacterial activity against methicillin-resistant Staphylococcus aureus after 18 hrs by two-fold microbroth dilution method; type: functional
Enterococcus faecalis = assay: Antibacterial activity against Enterococcus faecalis ATCC 19433 after 18 hrs by two-fold microbroth dilution method; type: functional; conditions: ATCC 19433, 18 h
Streptococcus pneumoniae [30] = assay: Antibacterial activity against penicillin-susceptible Streptococcus pneumoniae J24 after 18 hrs by two-fold microbroth dilution method; type: functional; conditions: J24, 18 h
Streptococcus pneumoniae [31] = assay: In vivo antibacterial activity against quinolone-sensitive and penicillin-resistant Streptococcus pneumoniae 033806 infected in CBA/JNCrj mouse assessed as reduction in bacterial count at 10 to 40 mg/kg, sc administered twice per day starting from 1 day after infection and measured on day after final dose; type: functional, organism-based
[32] = AUC (0 to 24 hrs) in cynomolgus monkey serum at 5 mg/kg, po; type: ADME, organism-based, Macaca fascicularis; parameters: time < 24 hr, dose 5 mg/kg, route oral
Mus musculus [33] = assay: Toxicity in Slc:ddY mouse assessed as induction of convulsion at 50 ug/5 uL/mouse administered intracisternally and measured over 30 mins post dose; type: organism-based; conditions: in vivo, other, 0.5 h

T1 sequence (Q12809 whole entry): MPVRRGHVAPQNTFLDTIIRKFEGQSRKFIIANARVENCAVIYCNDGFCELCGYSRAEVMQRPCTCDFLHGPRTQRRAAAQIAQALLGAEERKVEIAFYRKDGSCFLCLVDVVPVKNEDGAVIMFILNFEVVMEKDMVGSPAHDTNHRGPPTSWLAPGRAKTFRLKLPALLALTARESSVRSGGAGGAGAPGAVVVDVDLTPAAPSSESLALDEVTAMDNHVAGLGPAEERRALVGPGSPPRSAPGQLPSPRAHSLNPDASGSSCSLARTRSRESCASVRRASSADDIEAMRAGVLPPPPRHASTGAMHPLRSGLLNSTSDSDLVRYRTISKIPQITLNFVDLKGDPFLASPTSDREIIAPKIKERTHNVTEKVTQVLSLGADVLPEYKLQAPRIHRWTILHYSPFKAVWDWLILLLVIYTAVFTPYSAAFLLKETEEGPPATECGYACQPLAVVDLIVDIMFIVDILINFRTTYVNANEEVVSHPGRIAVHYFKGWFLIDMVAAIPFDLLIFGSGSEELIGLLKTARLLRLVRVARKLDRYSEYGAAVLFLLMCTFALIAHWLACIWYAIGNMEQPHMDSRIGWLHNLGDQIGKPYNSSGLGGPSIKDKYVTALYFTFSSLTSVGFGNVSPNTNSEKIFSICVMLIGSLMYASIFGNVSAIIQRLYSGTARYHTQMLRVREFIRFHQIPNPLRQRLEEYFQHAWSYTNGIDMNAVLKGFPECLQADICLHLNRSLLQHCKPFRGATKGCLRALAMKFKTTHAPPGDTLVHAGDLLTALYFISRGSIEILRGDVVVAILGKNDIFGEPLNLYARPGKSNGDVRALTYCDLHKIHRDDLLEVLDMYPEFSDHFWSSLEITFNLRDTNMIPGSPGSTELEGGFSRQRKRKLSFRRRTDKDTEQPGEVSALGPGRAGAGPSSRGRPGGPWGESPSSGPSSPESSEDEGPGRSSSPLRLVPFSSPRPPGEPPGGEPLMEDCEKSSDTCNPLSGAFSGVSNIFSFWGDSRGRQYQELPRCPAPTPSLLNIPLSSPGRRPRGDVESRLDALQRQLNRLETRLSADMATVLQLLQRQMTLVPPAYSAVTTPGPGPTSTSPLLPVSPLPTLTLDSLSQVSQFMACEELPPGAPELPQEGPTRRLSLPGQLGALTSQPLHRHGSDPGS
Sequence of CYP3A4 (P08684 whole entry): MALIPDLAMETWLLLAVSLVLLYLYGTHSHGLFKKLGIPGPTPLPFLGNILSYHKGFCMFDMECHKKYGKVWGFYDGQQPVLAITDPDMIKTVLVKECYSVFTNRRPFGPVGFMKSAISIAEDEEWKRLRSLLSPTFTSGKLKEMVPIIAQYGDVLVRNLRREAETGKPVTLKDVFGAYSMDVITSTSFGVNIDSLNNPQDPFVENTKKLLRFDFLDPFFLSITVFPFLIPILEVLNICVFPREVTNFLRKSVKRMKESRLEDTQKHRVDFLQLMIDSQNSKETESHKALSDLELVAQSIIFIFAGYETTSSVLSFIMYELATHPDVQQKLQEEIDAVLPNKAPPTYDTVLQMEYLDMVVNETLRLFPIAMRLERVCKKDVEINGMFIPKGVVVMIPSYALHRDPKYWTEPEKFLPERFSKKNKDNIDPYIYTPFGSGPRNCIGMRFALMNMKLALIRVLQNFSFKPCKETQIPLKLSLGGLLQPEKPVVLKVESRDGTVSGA
Sequence of Albumin (P02768 whole entry): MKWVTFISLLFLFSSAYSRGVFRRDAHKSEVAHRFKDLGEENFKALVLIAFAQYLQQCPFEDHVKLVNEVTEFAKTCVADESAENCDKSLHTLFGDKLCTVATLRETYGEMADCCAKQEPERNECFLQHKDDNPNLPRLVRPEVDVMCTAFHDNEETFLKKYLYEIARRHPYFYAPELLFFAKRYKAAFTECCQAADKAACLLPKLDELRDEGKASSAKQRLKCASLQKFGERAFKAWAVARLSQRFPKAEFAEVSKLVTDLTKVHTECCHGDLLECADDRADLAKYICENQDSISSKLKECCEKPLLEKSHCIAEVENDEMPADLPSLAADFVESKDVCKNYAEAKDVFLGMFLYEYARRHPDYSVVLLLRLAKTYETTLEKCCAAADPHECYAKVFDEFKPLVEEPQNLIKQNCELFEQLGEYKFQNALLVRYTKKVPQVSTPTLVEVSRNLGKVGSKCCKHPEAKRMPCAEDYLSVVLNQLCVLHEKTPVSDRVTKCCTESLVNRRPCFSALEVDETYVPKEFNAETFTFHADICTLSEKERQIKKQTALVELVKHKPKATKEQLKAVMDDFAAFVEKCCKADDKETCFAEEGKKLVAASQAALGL

For `O=C(O)c1cn(C2CC2)c2cc(N3CCNCC3)c(F)cc2c1=O` [CIPROFLOXACIN], the Activity (Mus musculus [1]) was “Toxic”, the Activity (Mus musculus [2]) was “Toxic” and the Activity (Mus musculus [3]) was “Non-Toxic”. The Activity (Mus musculus [4]) was “Toxic”, the Activity (Mus musculus [5]) was “Toxic” and the Activity (Mus musculus [6]) was “Non-Toxic”. The Activity (Mus musculus [7]) was “Toxic” and the Activity (Mus musculus [8]) was “Toxic”.
In the case of `COc1c(N2C[C@@H]3CCOC[C@@]3(N)C2)c(F)cc2c(=O)c(C(=O)O)cn([C@@H]3C[C@@H]3F)c12`, the MIC (Staphylococcus aureus [9]) was 0.006 µg/mL (≈ 0.0138 µM), the Cmax [10] was 880 ng/mL and the Activity (Mus musculus [1]) was “Non-Toxic”. For the same compound, the Activity (Mus musculus [11]) was “Non-Toxic”, the MIC (Haemophilus influenzae) was 0.006 µg/mL (≈ 0.0138 µM) and the MIC (Klebsiella pneumoniae) was 0.05 µg/mL (≈ 0.115 µM). The MIC (Streptococcus pneumoniae [12]) was 0.05 µg/mL (≈ 0.115 µM), the MIC (Pseudomonas aeruginosa) was 0.78 µg/mL (≈ 1.79 µM) and the Activity (Mus musculus [2]) was “Non-Toxic”. For the same compound, the Activity (Mus musculus [3]) was “Non-Toxic”, the half-life [13] was 3.5 h and the concentration at 5 min [14] was 7000 ng/mL. For the same compound, the MIC (Escherichia coli [15]) was 1.56 µg/mL (≈ 3.58 µM), the inhibition at 30 µM (hERG (KCNH2) [16]) was -2.2% and the MIC (Moraxella catarrhalis) was 0.025 µg/mL (≈ 0.0574 µM). It also gave a dose excreted at 24 h [17] of 65%, an MIC (Escherichia coli [18]) of 0.05 µg/mL (≈ 0.115 µM) and an MIC (Escherichia coli [19]) of 0.006 µg/mL (≈ 0.0138 µM). For the same compound, the Activity (Mus musculus [4]) was “Non-Toxic”, the MIC (Bacillus spizizenii) was 0.006 µg/mL (≈ 0.0138 µM) and the remaining at 0.5 h, 1 µM [20] was 100%. The MIC (Streptococcus pyogenes) was 0.05 µg/mL (≈ 0.115 µM), the fraction unbound at 1 h (Albumin) was 1 and the Activity (Mus musculus [5]) was “Non-Toxic”. For the same compound, the MIC (Staphylococcus aureus [21]) was 0.2 µg/mL (≈ 0.459 µM), the AUC(0-t) at 8 h [22] was 22900 ng·h/mL and the activity at 0.5 h, 10 µM (CYP3A4) was 97.4%. The Activity (Mus musculus [23]) was “Non-Toxic”, the Activity (Mus musculus [6]) was “Non-Toxic” and the inhibition at 100 µM (hERG (KCNH2) [24]) was -2.5%. The Activity (Mus musculus [25]) was “Non-Toxic”, the AUC(0-t) at 8 h [26] was 3140 ng·h/mL and the MIC (Staphylococcus aureus [27]) was 0.2 µg/mL (≈ 0.459 µM). The MIC (Streptococcus pneumoniae [28]) was 0.12 µg/mL (≈ 0.276 µM), the MIC (Staphylococcus aureus [29]) was 0.008 to 8 µg/mL and the MIC50 (Staphylococcus aureus [29]; Staphylococcus aureus, 18 h) was 0.015 µg/mL (≈ 0.0344 µM). The MIC90 (Staphylococcus aureus [29]; Staphylococcus aureus, 18 h) was 0.5 µg/mL (≈ 1.15 µM), the MIC (Enterococcus faecalis) was 0.2 µg/mL (≈ 0.459 µM) and the MIC (Streptococcus pneumoniae [30]) was 0.1 µg/mL (≈ 0.23 µM). For the same compound, the Activity (Mus musculus [8]) was “Non-Toxic”.
With `COc1c(N2CC3(CC3)[C@](C)(N)C2)c(F)cc2c(=O)c(C(=O)O)cn([C@@H]3C[C@@H]3F)c12` the MIC (Staphylococcus aureus [9]) was 0.012 µg/mL (≈ 0.0286 µM), the Activity (Mus musculus [1]) was “Non-Toxic” and the Activity (Mus musculus [11]) was “Non-Toxic”. The MIC (Streptococcus pneumoniae [12]) was 0.1 µg/mL (≈ 0.238 µM), the Activity (Mus musculus [2]) was “Non-Toxic” and the Activity (Mus musculus [3]) was “Non-Toxic”. The MIC (Escherichia coli [15]) was 6.25 µg/mL (≈ 14.9 µM), the MIC (Escherichia coli [18]) was 0.05 µg/mL (≈ 0.119 µM) and the MIC (Bacillus spizizenii) was 0.012 µg/mL (≈ 0.0286 µM). It also gave a remaining at 0.5 h, 1 µM [20] of 97%, an MIC (Streptococcus pyogenes) of 0.2 µg/mL (≈ 0.477 µM) and a fraction unbound at 1 h (Albumin) of 0.946. The Activity (Mus musculus [5]) was “Non-Toxic”, the MIC (Staphylococcus aureus [21]) was 0.78 µg/mL (≈ 1.86 µM) and the AUC(0-t) at 8 h [22] was 23800 ng·h/mL. For the same compound, the activity at 0.5 h, 10 µM (CYP3A4) was 78.4%, the Activity (Mus musculus [6]) was “Non-Toxic” and the Activity (Mus musculus [25]) was “Toxic”. The MIC (Staphylococcus aureus [27]) was 0.78 µg/mL (≈ 1.86 µM), the Activity (Streptococcus pneumoniae [31]) was “Active” and the MIC (Streptococcus pneumoniae [28]) was 0.12 µg/mL (≈ 0.286 µM). The MIC50 (Staphylococcus aureus [29]; Staphylococcus aureus, 18 h) was 0.03 µg/mL (≈ 0.0715 µM), the MIC90 (Staphylococcus aureus [29]; Staphylococcus aureus, 18 h) was 1 µg/mL (≈ 2.38 µM) and the MIC (Staphylococcus aureus [29]; Staphylococcus aureus, 18 h, read-out: MIC) was 0.015 to 4 µg/mL (≈ 0.0358 to 9.54 µM). For the same compound, the AUC(0-t) at 24 h [32] was 16900 ng·h/mL, the Activity (Mus musculus [33]) was “Toxic” and the Activity (Mus musculus [8]) was “Non-Toxic”.
